The values that follow come from ChEMBL document CHEMBL1759989, “Synthesis and evaluation of thiophenyl derivatives as inhibitors of alkaline phosphatase” (Bioorg Med Chem Lett, 2011).

Test [1] can be described thus: Inhibition of pig TNAP at pH 10.4 by UV-visible spectrophotometric assay. Details: species or system Sus scrofa.
Test [2] is described as follows: Inhibition of pig TNAP at pH 7.8 by UV-visible spectrophotometric assay. Set-up: species or system Sus scrofa.

Where a name gives a salt, the structure may show the parent alone. A value given as a limit tells only on which side of the number the result lay.

`c1cc(-c2cn3ccsc3n2)cs1`: the IC50 in test [1] and in test [2] was > 800 µM throughout.

On to `c1cc(-c2cn3c(n2)SCC3)cs1`, for which the IC50 in test [1] and in test [2] was > 800 µM each time.

Turning to `C1=C(c2ccsc2)N2CCN=C2S1`, the concentration for half-maximal inhibition (IC50) in test [1] and in test [2] was > 800 µM in each case.

On to `C1=CN2CC(c3ccsc3)N=C2S1` (racemic), for which the IC50 (in general, the concentration that inhibits the measured activity by half) in test [1] amounted to 42 µM; in test [2] it was 84 µM.

`c1cc(C2CN3CCSC3=N2)cs1` (racemic): the results for the IC50 in test [1] and in test [2] were 408 µM and 192 µM, respectively.

Regarding `C1=CN2CC(c3cccs3)N=C2S1` (racemic), the results for the IC50 in test [1] and in test [2] were 331 µM and 260 µM, respectively.

As to `c1csc(C2CN3CCSC3=N2)c1` (racemic), the IC50 in test [1] and in test [2] was > 800 µM throughout.

As for `c1ccc([C@H]2CN3CCSC3=N2)cc1` [LEVAMISOLE HYDROCHLORIDE], the IC50 in test [1] is 93 µM; in test [2], 78 µM.
